Test results from article PMC8280721, “Structural and Functional Analysis of a Multimodular Hyperthermostable Xylanase-Glucuronoyl Esterase from Caldicellulosiruptor kristjansonii” (Biochemistry, 2021).

Tests used:
Assay type in all cases: binding
[1] = biological target: T1, CkGE15A (GE15A, glucuronoyl esterase domain of CkXyn10C-GE15A) (Caldicellulosiruptor acetigenus, UniProt E4S6E9); assay: DSF (Tycho NT.[…]); details: 10000 µM; 0.5 mg/mL protein, 50 mM MOPS pH 7.2; second inflection point; no-ligand control Ti2 81.3 ± 0.37 °C
T1 construct: gene Calkr_2245; isolated CE15 domain (entire GE domain Thr1341-Arg1685 seen in structure); E. coli BL21(DE3), pET28a-TEVc; full-length protein 2159 residues

[2] = biological target: T2, CBM9.3 (CkCBM9.3, third CBM9 domain of CkXyn10C-GE15A) (Caldicellulosiruptor acetigenus, UniProt E4S6E9); assay: DSF (Tycho NT.[…]); details: 100000 µM; 0.5 mg/mL protein, 50 mM Tris pH 8, 100 mM NaCl; 100 mM ligand; no-ligand control Ti 61.0 ± 0.88 °C
T2 construct: gene Calkr_2245; isolated CBM9.3 domain (Lys1072-Leu1252) plus C-terminal linker Lys1253-Pro1265; N-terminal His6 tag and TEV site (not seen in density); E. coli BL21(DE3), pET28a-TEVc; full-length protein 2159 residues

[3] = biological target: T2, CBM9.3 (CkCBM9.3, third CBM9 domain of CkXyn10C-GE15A); assay: X-ray crystallography (soak […], […] min); details: crystal at pH 4.2; aromatic clamp Tyr89/Trp191

T2 sequence (E4S6E9 entry or part of it): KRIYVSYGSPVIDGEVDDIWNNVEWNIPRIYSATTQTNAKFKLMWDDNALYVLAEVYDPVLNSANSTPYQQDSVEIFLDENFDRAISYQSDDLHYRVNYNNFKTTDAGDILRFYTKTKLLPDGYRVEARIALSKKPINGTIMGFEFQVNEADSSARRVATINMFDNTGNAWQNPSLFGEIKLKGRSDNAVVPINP
T1 sequence (E4S6E9 entry or part of it): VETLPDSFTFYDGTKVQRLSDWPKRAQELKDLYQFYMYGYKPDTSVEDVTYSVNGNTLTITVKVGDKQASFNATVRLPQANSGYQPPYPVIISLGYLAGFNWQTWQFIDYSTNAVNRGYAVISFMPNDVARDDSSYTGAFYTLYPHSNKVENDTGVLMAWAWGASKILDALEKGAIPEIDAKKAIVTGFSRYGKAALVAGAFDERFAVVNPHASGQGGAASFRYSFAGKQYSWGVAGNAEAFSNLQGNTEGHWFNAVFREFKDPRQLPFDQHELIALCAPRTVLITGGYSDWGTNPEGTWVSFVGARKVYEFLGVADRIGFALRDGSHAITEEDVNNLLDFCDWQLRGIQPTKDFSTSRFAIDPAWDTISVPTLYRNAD

Compound | Ti2 (°C) ± SD [1] | Ti (°C) ± SD [2] | X-ray crystallography (soak 500 mM, 5 min) [3]
O=C(OCc1ccccc1)[C@H]1OC(O)[C@H](O)[C@@H](O)[C@@H]1O (stereo partly shown) [benzylglucuronate] | 79.3 ± 0.49 °C |  | 
OC[C@H]1OC(O)[C@H](O)[C@@H](O)[C@@H]1O (stereo partly shown) [glucose] |  | 66.7 ± 0.195 °C | we obtained structures with bound glucose and cellobiose and also with cellotriose
aldopentauronic acid | 79.2 ± 0.49 °C |  | 
